# According to patent US10138208B2, “Pyrazole derivatives as inhibitors of STAT3” (Mayo Foundation for Medical Education and Research, priority 2012, dated 2018):
# Entries after “also recorded” stand apart in the source; their conditions may differ. Like-named read-outs stand apart in the source and are kept apart here.
# Tests used:
# DAOY cells [1] = experiment: Annexin V/propidium iodide apoptosis assay, DAOY; assay type: cell-based; settings: dose dependent, 24 hours
# Experimental: (§1) The compounds were tested for their effect on tumor cell viability by initiating apoptosis through Annexin V-FITC cell staining analysis. […] Cell death was most pronounced in DAOY cells, followed by BT114 and then HCT cells (FIG. 8). […] The difference in cell death between cell lines may reflect differences in STAT3 signaling between tumor cell types.
# (§2) Apoptosis Assay: Analysis of cell death through an apoptosis pathway was determined using an Annexin V apoptosis detection kit (Calbiochem, Rockland, Mass.). dBT114, DAOY and HCT116 cells were plated in 6-well tissue culture plates at a density of 500 cells per well and allowed to reach 60% confluence prior to addition of test compounds for 24 hours. Floating and adherent cells were harvested and stained with FITC-labeled Annexin V and propidium iodide for 15 minutes at room temperature in the dark. The cells were then washed with cold binding buffer and immediately analyzed by flow cytometry for cells staining positive for both Annexin V and propidium iodide.
# [2] = tested on: glioblastoma (dBT114) cells; experiment: IncuCyte cell proliferation assay (confluence), dBT114; assay type: cell-based, human; settings: for dose-dependent inhibition of tumor cell proliferation: dBT114 cells (FIG. 4B); for effect on tumor cell growth kinetics (confluence): 50 μM (FIG. 4A)
# Experimental: (§3) Pyrazole-based inhibitors were tested for efficacy in stopping tumor cell growth by performing cell proliferation assays in glioblastoma (dBT114), medulloblastoma (DAOY) and human colorectal carcinoma (HCT116) cells lines. Tumor cells were plated in 96-well plates and varying concentrations of inhibitors or DMSO were added initially or after several log-growths of tumor cells. Cell proliferation was determined by measuring cell confluency using an automated system. […] Similar effects were found on tumor cell proliferation in DAOY and HCT116 tumor cell lines (FIG. 5, again only showing C6 data). The effects of C6 and C3 on tumor cell proliferation were compared to other previously characterized inhibitors, specifically, WP1066 (a Jak2 inhibitor) and LLL-12 (a direct STAT3 inhibitor).
# (§4) IncuCyte Cell Proliferation Assay: Cell proliferation assays were performed on dBT114, DAOY and HCT116 cells using an IncuCyte 2011A microplate imager (Essen BioScience, Ann Arbor, Mich.). Cells were plated at a density of 3000 cells per well in a 96 well plate and allowed to reach exponential growth phase prior to the addition of test compounds. Cell confluence was measured optically every three hours for up to 90 hours.
# [3] = tested on: Normal Human Astrocytes (NHA); experiment: MTT cell proliferation assay, normal human astrocytes; settings: 24 hour exposure, increasing concentrations, n=4 (FIG. 13)
# Experimental: (§8) MTT Cell Proliferation Assay: Normal Human Astrocytes (Lonza) and human BT114 cells were plated at a density of 5000 cells per well in a 96-well tissue culture plate and incubated at 37° C. in the presence of 5% CO2 for 24 hours. Cell proliferation was determined using the CellTiter 96 Cell Proliferation Assay (Promega). After 24 hours cells were refed with normal media and MTT dye solution was added according to manufacturer's protocol. After 4 hours the reaction was stopped and absorbance was measured at 570 nm using a 96 well plate reader. […] (n=4).
# [4] = tested on: medulloblastoma (DAOY) cells; experiment: IncuCyte cell proliferation assay (confluence), DAOY; assay type: cell-based; settings: DAOY cells (FIG. 5A)
# Experimental: as §3, §4
# dBT114 cells = experiment: Annexin V/propidium iodide apoptosis assay, dBT114; assay type: cell-based, human; settings: for cell death through apoptosis (Annexin V/PI flow cytometry): dBT114 (BT114) cells, dose dependent, 24 hours
# Experimental: as §1, §2
# HCT116 cells = experiment: Annexin V/propidium iodide apoptosis assay, HCT116; assay type: cell-based, human; settings: HCT (HCT116) cells, dose dependent, 24 hours
# Experimental: as §1, §2
# [5] = tested on: human colorectal carcinoma (HCT116) cells; experiment: IncuCyte cell proliferation assay (confluence), HCT116; assay type: cell-based; settings: human colorectal carcinoma cell line HCT116 (FIG. 5B)
# Experimental: as §3, §4
# STAT3 [6] = target: T1, STAT3 (Homo sapiens, UniProt P40763); experiment: IL-6 induced STAT3 phosphorylation, Western blot / densitometry, dBT114 cells; assay type: cell-based; settings: for IC50: densitometry of western blots (FIG. 12), read-out: half-maximal inhibitory concentration (IC50) for blocking STAT3 activation; for inhibition of STAT3 phosphorylation: IL-6, 10 μM, Western blot (FIG. 1); for dose dependence of inhibition of IL-6 induced STAT3 phosphorylation: increasing concentrations (FIG. 2)
# T1 construct: To characterize changes in protein levels in whole cell lysates; endogenous in cells; host or cells: dBT114 (human GBM stem cell line)
# Experimental: (§5) Compounds described herein can be tested for blocking the activation of phospho-STAT3 in vitro. […] The compounds were tested for inhibiting IL-6 induced phosphorylation of STAT3 in a human Glioblastoma GBM stem cell line (dBT114) and in the murine GBM cell line, GL261. IL-6 potently activates STAT3 phosphorylation in dBT114 cells but not as much in GL261 cells (FIG. 1), showing that GL261 cells have constitutively activated STAT3. […] A dose dependent decrease of IL-6 induced STAT3 phosphorylation in dBT114 cells using increasing concentrations of our compounds was observed, while no effect was seen on the levels of activated MAP kinase (FIG. 2).
# Western Blot Analysis: Prior to analysis, cells were washed twice in cold phosphate buffered saline (PBS) and flash frozen in 200 μL of lysis buffer (50 mm/L NaCl, 50 mmol/L NaF, 50 mmol/L sodium pyrophosphate, 5 mmol/L EDTA, 5 mmol/L EGTA, 2 mmol/L Na3VO4, 1% Triton X-100, 0.5 mmol/L PMSF, […], 10 mmol/L HEPES, pH 7.4) in a ethanol/dry ice bath followed by scraping and a 5 second sonication to achieve a homogeneous solution. Sample protein concentrations were determined using the Bradford protein assay kit (Bio-Rad, Hercules, Calif.). To characterize changes in protein levels in whole cell lysates, 10 μg of total protein was size fractioned by 12% SDS-PAGE, transferred to nitrocellulose and stained with Ponceau-S stain to ensure equal protein loading. For Western blot analysis, membranes were incubated for 1 hour in blocking solution containing 1% dry milk in PBS-T, followed by an overnight incubation with either anti-Stat3 (Santa Cruz Biotechnology, Santa Cruz, Calif.,) or anti-Phospho-Stat3 (Santa Cruz). Nitrocellulose membranes were then incubated for 1 hour with horseradish peroxidase conjugated anti-IgG antibodies and visualized using Super Signal West Pico enhanced chemiluminescence detection (Thermo Scientific, Waltham, Mass.).
# Western Densitometry—Determination of Half-Maximal Inhibitory Concentration for Activating STAT3: Dose Response Curves Half-maximal inhibitory concentrations for activating STAT3 (IC50 values) were calculated in BT114 cells from western blot data. The original western blot films were analyzed by densitometric analysis using the software program NIH Image (available at rsb.info.nih.gov/nih-image/). Standard dose-response curves were then created using the software program Prism 5.
# DAOY cells [7] = experiment: Uptake in living cells by confocal microscopy; assay type: cell-based; settings: live DAOY cells, 50 μM, 30 minutes, confocal microscopy (FIG. 9)
# Experimental: Further, live DAOY cells were treated with 50 μM C9 for 30 minutes and then evaluated its uptake with confocal microscopy.
# STAT3 [8] = target: T2, STAT3 (Mus musculus, UniProt P42227); experiment: STAT3 phosphorylation, Western blot, GL261 cells; assay type: cell-based, murine; settings: GL261 cells (constitutively activated STAT3), 10 μM, Western blot (FIG. 1)
# T2 construct: endogenous in cells; host or cells: GL261 (murine GBM cell line)
# Experimental: as §5
# (§6) Western Blot Analysis: Prior to analysis, cells were washed twice in cold phosphate buffered saline (PBS) and flash frozen in 200 μL of lysis buffer (50 mm/L NaCl, 50 mmol/L NaF, 50 mmol/L sodium pyrophosphate, 5 mmol/L EDTA, 5 mmol/L EGTA, 2 mmol/L Na3VO4, 1% Triton X-100, 0.5 mmol/L PMSF, […], 10 mmol/L HEPES, pH 7.4) in a ethanol/dry ice bath followed by scraping and a 5 second sonication to achieve a homogeneous solution. Sample protein concentrations were determined using the Bradford protein assay kit (Bio-Rad, Hercules, Calif.). […]
# Bcl-2 = experiment: Downstream target of STAT3 transcription: Bcl-2 protein level in dBT114 cells; assay type: cell-based, human; settings: various concentrations, 24 hours (FIG. 3, FIG. 10B)
# Experimental: (§7) STAT3 is a transcription factor that leads to the activation of several pro-proliferation proteins including Cyclin D1 and numerous anti-apoptotic proteins such as Bcl-2. To analyze the effects on the downstream targets of STAT3 transcription, Cyclin D1 and Bcl-2 protein levels were monitored after exposure to the compounds described. dBT114 cells were treated with various concentrations of C3, C10 or DMSO for 24 hours.
# as §6, with “Calif.). To characterize changes in protein levels in whole cell lysates, 10 μg of total protein was size fractioned by 12% SDS-PAGE, transferred to nitrocellulose and stained with Ponceau-S stain to ensure equal protein loading.” for “Calif.).”
# PARP = PARP cleavage in dBT114 cells; assay type: cell-based, human; settings: various concentrations, 24 hours (FIG. 3, FIG. 10B)
# [9] = tested on: Normal Human Astrocytes (NHA)
# Experimental: as §8
# MAP kinase = experiment: Activated MAP kinase levels, Western blot, dBT114 cells; assay type: cell-based, human; settings: increasing concentrations (FIG. 2)
# Experimental: as §5, §6
# Cyclin D1 = experiment: Downstream target of STAT3 transcription: Cyclin D1 protein level in dBT114 cells; assay type: cell-based, human; settings: various concentrations, 24 hours (FIG. 3)
# Experimental: as §7
# as §6, with “Calif.). To characterize changes in protein levels in whole cell lysates, 10 μg of total protein was size fractioned by 12% SDS-PAGE, transferred to nitrocellulose and stained with Ponceau-S stain to ensure equal protein loading.” for “Calif.).”
# T2 sequence (P42227 whole entry): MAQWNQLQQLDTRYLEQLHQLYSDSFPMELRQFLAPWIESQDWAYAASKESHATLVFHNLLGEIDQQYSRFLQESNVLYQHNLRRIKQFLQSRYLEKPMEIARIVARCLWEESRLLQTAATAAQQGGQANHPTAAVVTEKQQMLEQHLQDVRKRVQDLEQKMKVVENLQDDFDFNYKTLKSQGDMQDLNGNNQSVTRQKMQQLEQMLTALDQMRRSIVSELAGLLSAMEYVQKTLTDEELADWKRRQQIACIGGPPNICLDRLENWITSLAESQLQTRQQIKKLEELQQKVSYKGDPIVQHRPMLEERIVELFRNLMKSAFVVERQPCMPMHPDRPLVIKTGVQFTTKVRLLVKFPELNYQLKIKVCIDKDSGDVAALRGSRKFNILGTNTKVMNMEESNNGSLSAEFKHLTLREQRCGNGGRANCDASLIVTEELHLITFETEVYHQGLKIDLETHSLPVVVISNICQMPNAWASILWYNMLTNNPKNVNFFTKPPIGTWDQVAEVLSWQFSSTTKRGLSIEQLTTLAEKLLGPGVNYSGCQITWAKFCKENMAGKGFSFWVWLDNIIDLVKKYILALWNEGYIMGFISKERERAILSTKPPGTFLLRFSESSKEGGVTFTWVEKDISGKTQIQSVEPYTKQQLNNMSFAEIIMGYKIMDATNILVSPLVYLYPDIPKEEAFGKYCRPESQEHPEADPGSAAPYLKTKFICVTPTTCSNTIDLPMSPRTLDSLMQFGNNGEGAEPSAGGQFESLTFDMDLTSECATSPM
# T1 sequence (P40763 whole entry): as the sequence (P42227 whole entry) above, with D760E counted along it
Compound,cell death through apoptosis (Annexin V/PI flow cytometry) (DAOY cells [1]),dose-dependent inhibition of tumor cell proliferation [2],effect on tumor cell growth kinetics (confluence) ([2]; dBT114 cells),"cellular proliferation, combination with temozolomide (TMZ) ([2]; dBT114 cells, C6 fixed 25 μM with increasing concentrations of TMZ (FIG. 7))",metabolic activity of normal human astrocytes [3],dose-dependent inhibition of tumor cell proliferation [4],"relative potency in causing cell death (dBT114 cells; all cell lines tested (BT114, DAOY, HCT))",cell death through apoptosis (Annexin V/PI flow cytometry) (dBT114 cells),cell death through apoptosis (Annexin V/PI flow cytometry) (HCT116 cells),dose-dependent inhibition of tumor cell proliferation [5],IC50 (STAT3 [6]),uptake and fluorescence in living cells (DAOY cells [7]),inhibition of STAT3 phosphorylation (STAT3 [8]),Bcl-2 protein level (Bcl-2),cleavage of PARP (induction of apoptosis) (PARP),metabolic activity of normal human astrocytes [9],inhibition of STAT3 phosphorylation (STAT3 [6]),dose dependence of inhibition of IL-6 induced STAT3 phosphorylation (STAT3 [6]),effect on levels of activated MAP kinase (MAP kinase),Cyclin D1 protein level (Cyclin D1)
"CC(C)CCc1cc(-c2ccc(Br)cc2)n(-c2ccc(S(N)(=O)=O)cc2)n1 [C6, 5-(4-Bromophenyl)-3-(isopentyl)-1-(4-aminosulfonylphenyl)-1H-pyrazole]",cell death through apoptosis,dose-dependent inhibition; also recorded: dose dependent inhibition,profound effect,dose-dependent decrease,no clear pattern of increased or decreased metabolic activity,dose dependent inhibition,more potent than C4,cell death through apoptosis; also recorded: dose-dependent apoptosis,cell death through apoptosis,dose dependent inhibition,13.4 µM,,,,,,,,,
"CC(C)CCc1cc(-c2ccccc2)nn1-c1ccc(S(N)(=O)=O)cc1 [C9, 3-(Phenyl)-5-(isopentyl)-1-(4-aminosulfonylphenyl)-1H-pyrazole]",,,,,,,,,,,,strong uptake and fluorescence,,,,,,,,
"CNC(=O)COCC(=O)Nc1ccc(Cc2cc(-c3ccc(Br)cc3)n(-c3ccc(S(N)(=O)=O)cc3)n2)cc1 [C3, 3-[{2-[(Methylaminocarbonyl)-methoxy]-acetyl}-(4-aminobenzyl)]-5-(4-bromophenyl)-1-(4-aminosulfonylphenyl)-1H-pyrazole]",,dose-dependent inhibition,profound effect,,,,,dose-dependent apoptosis,,,0.67 µM,,potently inhibited; also recorded: blocked,decreased Bcl-2 in a dose dependent fashion; also recorded: dose-dependent reduction,cleavage of PARP; also recorded: increase,no clear pattern of increased or decreased metabolic activity,potently inhibited; also recorded: blocked,dose-dependent inhibition,no effect,
"NS(=O)(=O)c1ccc(-n2nc(Cc3ccc(NC(=O)COCC(=O)NCCCCCCCNC(=O)COCC(=O)Nc4ccc(Cc5cc(-c6ccc(Br)cc6)n(-c6ccc(S(N)(=O)=O)cc6)n5)cc4)cc3)cc2-c2ccc(Br)cc2)cc1 [C10, 3-[{2-[(7-{2-[((4-((5-(4-Bromophenyl)-1-(4-sulfamoylphenyl)-1H-pyrazol-3-yl)methyl)phenyl)aminocarbonyl)-methoxy]-acetylamino}-heptylaminocarbonyl)-methoxy]-acetyl}-(4-aminobenzyl)]-5-(4-bromophenyl)-1-(4-aminosulfonylphenyl)-1H-pyrazole]",,,,,,,,dose-dependent apoptosis,,,0.207 µM,,potently inhibited; also recorded: blocked,dose-dependent reduction,increase,no clear pattern of increased or decreased metabolic activity,potently inhibited; also recorded: blocked,dose-dependent inhibition,no effect,decreased Cyclin D1 levels in a dose dependent fashion
"CC(=O)Nc1ccc(Cc2cc(-c3ccc(Br)cc3)n(-c3ccc(S(N)(=O)=O)cc3)n2)cc1 [C4, 3-(4-Acetamidebenzyl)-5-(4-bromophenyl)-1-(4-aminosulfonylphenyl)-1H-pyrazole]",cell death through apoptosis,dose-dependent inhibition,,,no clear pattern of increased or decreased metabolic activity,,,cell death through apoptosis; also recorded: dose-dependent apoptosis,cell death through apoptosis,,> 50 µM,,,,,,,,,
